According to PMC10545732, “Structure-based drug discovery of a corticotropin-releasing hormone receptor 1 antagonist using an X-ray free-electron laser” (Experimental & Molecular Medicine, 2023):

Tested on: hCMECs/D3
Experiment: In vitro BBB permeability assay
Format: in vitro ADME, human
Method: Human cerebral microvascular endothelial cells (hCMECs/D3, SCC066; Sigma-Aldrich) were used to assess the permeability of CRF1R antagonists across the BBB. hCMECs were seeded on Falcon^TM cell culture inserts (08-770, Fisher Scientific) with 0.4 μm pore sizes precoated with collagen type I from rat tails (354236, Corning) at a density of 50,000 cells/mL in endothelial cell growth medium-2 (EGM-2, CC-3162; Lonza). The medium was changed with EGM-2 every three to four days for proliferation and with EGM-2 containing 2.5% human serum (SLBX6020, Sigma-Aldrich) for differentiation. Cell culture inserts were transferred into 24-well plates containing 700 μL of EGM-2 in each well (basolateral compartment) for the permeability assay. The medium in the inserts (apical compartment) was then replaced with 300 μL EGM-2 containing 10 μM BMK-C203 or BMK-C205. Apical and basolateral compartments were collected after a 12-h incubation at 37 °C, and drug concentrations were measured using HPLC. For sample preparation, 50 μL of the sample was mixed with 10 μL of an internal standard solution (d4-cortisol). Subsequently, 50 μL of acetonitrile was added, and the mixture was centrifuged at 16,000×g for 10 min for protein precipitation. The supernatants were used for LC‒MS analysis with a triple quadrupole mass spectrometer coupled with HPLC using a C18 reversed-phase column. The concentration of the antagonists was determined using a calibration curve. The permeability coefficient (P) was calculated according to Pardridge et al.[34]. The permeability-surface area product (PS, in cm^3/s) was divided by the filter surface area A (in cm^2) using Eq. (1) as follows:1 Pcm/s=Vd×△Ma/A×[…]×△t where Vd is the volume in the donor compartment in cm^3, ΔMa is the total amount of the compound in the […] compartment after t seconds, Md is the donor amount, Δt is the incubation time, and A is the filter area in cm^2.

permeability coefficient relative to BMK-C203: seven times higher
SMILES: CCCCN(CC1CC1)c1nc(C)nc2c(-c3c(OC)cc(Br)cc3OC)c(C)nn12 [BMK-C205]
